Laboratory results taken from US20240148733A1, “COMBINATION THERAPY” (Genentech, Inc., priority 2021, published 2024).

Experiments:
Test in all cases: Drug combination assay (CellTiter-Glo cell viability)
Type in all cases: cell-based
[1] = test system: H358 parental cells (KRAS G12C); conditions: six days, 96-wells
Experimental: (§1) Cells were seeded in either 96-well or 384-well plates 16 h before treatment at a density of 1000 cells per well. Then, cells were treated with varying concentrations of compound(s) as indicated in FIGS. 1-8 (384-wells) and FIGS. 10-105 (96-wells), either a single agent or in combination, for six days. The relative number of viable cells was estimated using CellTiter-Glo Luminescent Cell Viability Assay (Promega, G7573). Total luminescence was detected on a Wallac Multilabel Reader (Perkin-Elmer).

[2] = test system: H2030 cells (KRAS G12C); conditions: six days, 96-wells
Experimental: as §1

[3] = test system: H358 resistant cells (KRAS G12C); conditions: six days, 96-wells
Experimental: as §1

[4] = test system: H2122 cells (KRAS G12C); conditions: six days, 384-wells
Experimental: as §1

[5] = combination with Compound K1 (a KRAS inhibitor)
[6] = combination with Compound K2 (a KRAS inhibitor)
[7] = combination with Compound K3 (a KRAS inhibitor)
[8] = combination with Compound K4 (a KRAS inhibitor)

SMILES | % inhibition of H358 parental cells (KRAS G12C) [1, 5] | % inhibition of H358 parental cells (KRAS G12C) [1, 6] | % inhibition of H358 parental cells (KRAS G12C) [1, 7] | % inhibition of H358 parental cells (KRAS G12C) [1, 8] | % inhibition of H2030 cells (KRAS G12C) [2, 5] | % inhibition of H2030 cells (KRAS G12C) [2, 6] | % inhibition of H2030 cells (KRAS G12C) [2, 7] | % inhibition of H2030 cells (KRAS G12C) [2, 8] | combination effect on cell viability (qualitative) [3, 5] | combination effect on cell viability (qualitative) [3, 6] | combination effect on cell viability (qualitative) [3, 7] | combination effect on cell viability (qualitative) [3, 8] | % inhibition of H2122 cells (KRAS G12C) [4, 5] | % inhibition of H2122 cells (KRAS G12C) [4, 6]
C[C@H](NC(=O)c1ccc2c(-c3ccc(C(F)(F)F)cc3)cccc2c1)c1ccccn1 [Compound T7, N-[(1S)-1-(2-pyridyl)ethyl]-5-[4-(trifluoromethyl)phenyl]naphthalene-2-carboxamide] | sensitizes cells resistant to Compound K1 | sensitizes cells resistant to Compound K2 | sensitizes cells resistant to Compound K3 | sensitizes cells resistant to Compound K4 | sensitizes cells resistant to Compound K1 | sensitizes cells resistant to Compound K2 | sensitizes cells resistant to Compound K3 | sensitizes cells resistant to Compound K4 | sensitizes cells resistant to Compound K1 | sensitizes cells resistant to Compound K2 | sensitizes cells resistant to Compound K3 | sensitizes cells resistant to Compound K4 |  | 
COc1cnc(C(=O)NCc2cccc(CC(=O)N(C)CCOCCOCCOCCOCCOc3ccc4c(c3)C(=O)N(C3CCC(=O)NC3=O)C4=O)c2)cc1/C=C/[C@H]1CC[C@H](C(F)(F)F)CC1 (stereo partly drawn) [Compound T5, N-[[3-[2-[2-[2-[2-[2-[2-[2-(2,6-dioxo-3-piperidyl)-1,3-dioxo-isoindolin-5-yl]oxyethoxy]ethoxy]ethoxy]ethoxy]ethyl-methyl-amino]-2-oxo-ethyl]phenyl]methyl]-5-methoxy-4-[rac-(E)-2-[4-(trifluoromethyl)cyclohexyl]vinyl]pyridine-2-carboxamide] | sensitizes cells resistant to Compound K1 | sensitizes cells resistant to Compound K2 | sensitizes cells resistant to Compound K3 | sensitizes cells resistant to Compound K4 | sensitizes cells resistant to Compound K1 | sensitizes cells resistant to Compound K2 | sensitizes cells resistant to Compound K3 | sensitizes cells resistant to Compound K4 | sensitizes cells resistant to Compound K1 | sensitizes cells resistant to Compound K2 | sensitizes cells resistant to Compound K3 | sensitizes cells resistant to Compound K4 |  | 
Cc1nccnc1-c1nn2c(=O)cc(-c3ccc(C4CCCCC4)cc3)[nH]c2c1C(=O)N1C[C@H](CF)[C@@H]1C (racemic) [Compound T9, 5-(4-cyclohexylphenyl)-2-(3-methylpyrazin-2-yl)-3-[rac-(2S,3S)-3-(fluoromethyl)-2-methyl-azetidine-1-carbonyl]-4H-pyrazolo[1,5-a]pyrimidin-7-one] | sensitizes cells resistant to Compound K1 | sensitizes cells resistant to Compound K2 | sensitizes cells resistant to Compound K3 | sensitizes cells resistant to Compound K4 | sensitizes cells resistant to Compound K1 | sensitizes cells resistant to Compound K2 | sensitizes cells resistant to Compound K3 | sensitizes cells resistant to Compound K4 | sensitizes cells resistant to Compound K1 | sensitizes cells resistant to Compound K2 | sensitizes cells resistant to Compound K3 | sensitizes cells resistant to Compound K4 |  | 
C[C@@H](NC(=O)c1ccc2c(Oc3ccc(C(F)(F)F)cc3)cccc2c1)c1cccc(N)n1 [Compound T6, N-[(1R)-1-(6-amino-2-pyridyl)ethyl]-5-[4-(trifluoromethyl)phenoxy]naphthalene-2-carboxamide] | sensitizes cells resistant to Compound K1 | sensitizes cells resistant to Compound K2 | sensitizes cells resistant to Compound K3 | sensitizes cells resistant to Compound K4 | sensitizes cells resistant to Compound K1 | sensitizes cells resistant to Compound K2 | sensitizes cells resistant to Compound K3 | sensitizes cells resistant to Compound K4 | sensitizes cells resistant to Compound K1 | sensitizes cells resistant to Compound K2 | sensitizes cells resistant to Compound K3 | sensitizes cells resistant to Compound K4 |  | 
Cn1cc2c3cc(C(=O)O)ccc3n(-c3ccc(C(F)(F)F)cc3)c2n1 [Compound T10] | sensitizes cells resistant to Compound K1 | sensitizes cells resistant to Compound K2 | sensitizes cells resistant to Compound K3 | sensitizes cells resistant to Compound K4 | sensitizes cells resistant to Compound K1 | sensitizes cells resistant to Compound K2 | sensitizes cells resistant to Compound K3 | sensitizes cells resistant to Compound K4 | sensitizes cells resistant to Compound K1 | sensitizes cells resistant to Compound K2 | sensitizes cells resistant to Compound K3 | sensitizes cells resistant to Compound K4 |  | 
C=C(CNc1cc(-c2ccc(C(C)C)cc2)c2c(c1C#N)CCO2)C(=O)O [Compound T4, 2-(((4-cyano-7-(4-isopropylphenyl)-2,3-dihydrobenzofuran-5-yl)amino)methyl)acrylic acid] |  |  |  |  |  |  |  |  |  |  |  |  | sensitizes cells resistant to Compound K1 | sensitizes cells resistant to Compound K2
CNS(=O)(=O)c1ccc(Nc2ccc(C(F)(F)F)cc2)c(-c2cn(C)cn2)c1 [Compound T8, N-methyl-3-(1-methylimidazol-4-yl)-4-[4-(trifluoromethyl)anilino]benzenesulfonamide] | sensitizes cells resistant to Compound K1 | sensitizes cells resistant to Compound K2 | sensitizes cells resistant to Compound K3 | sensitizes cells resistant to Compound K4 | sensitizes cells resistant to Compound K1 | sensitizes cells resistant to Compound K2 | sensitizes cells resistant to Compound K3 | sensitizes cells resistant to Compound K4 | sensitizes cells resistant to Compound K1 | sensitizes cells resistant to Compound K2 | sensitizes cells resistant to Compound K3 | sensitizes cells resistant to Compound K4 |  | 
